Key:
Assay type in all cases: in vivo, C57BL/6 mice
[1] = tested on: CD48-CD11b+ positive granulocytes; test: Proportion of granulocytes in CIA arthritis mice (flow cytometry); conditions: CD48-CD11b+ granulocytes to white blood cells; 21 days after second immunization; MEAN ± SEM
Text: Test materials and animals: CD48 PE and CD11b FITC antibodies were purchased from BD Pharmingen; RBC Lysis Buffer was purchased from Biolegend of the United States; other required reagents were the same as in Experimental Example 3.
Model preparation and drug administration: the administration dose of each treatment group was the same as that of Experimental Example 3. 21 days after the second immunization, the mice were anesthetized.
Animal: C57BL/6 mouse, purchased from Beijing Huafukang Biotechnology Co., Ltd.
Preparation of bone marrow single cell suspension: After anesthesia of C57BL/6 mice, the two pairs of femur and tibia of the mouse were separated, PBS was pipetted with a 2 mL syringe to flush the bone marrow cells into a flow tube, and pipetted repeatedly to obtain the bone marrow single cell suspension. The bone marrow was filtered into a flow tube with a 400-mesh strainer, discarded the supernatant after centrifugation, added 2 mL of RBC Lysis Buffer and lysed at room temperature for 15 min. Discarded the supernatant by centrifugation, harvested the bone marrow cells, resuspended by adding 1 mL of PBS, and repeatedly mixing by pipetting 100 μL into the flow tube for surface staining. […]

[2] = tested on: serum cytokines TNF-α, IL-12, IL-6, MCP-1, IFN-γ; test: Serum cytokine secretion in mouse model of ConA hepatitis; conditions: MEAN ± SEM
Description: (§1) The test materials and animals were the same as those in Experimental Example 1.
(§2) Grouping: C57BL/6 mice, male, 18-20 g, after 1 day of adaptive breeding, the mice were randomly divided into 6 groups: normal control group; ConA model group, Cimicifugae rhizoma compatibility group, Cimicifugae rhizoma group, Cimicifugae rhizoma total phenolic acid group and isoferulic acid group.
(§3) Model preparation and drug administration: except the normal control group, mice were injected intravenously once at a dose of ConA 15 mg/kg. The dosages of each drug group were the same as those of Experimental Example 1.
(3) The effects of drugs in each treatment group on serum cytokine secretion in ConA mice were examined. Six mice from each group. Peripheral blood was collected 3 hours after ConA injection and serum was separated to detect the secretion of cytokines TNF-α, IL-12, IL-6 and MCP-1. Serum was separated 10 hours after ConA injection to detect cells factor IFN-γ secretion.

Body weight of CIA mice = conditions: day 21 of the second immunization; MEAN ± SEM
Text: The test materials and animals were the same as those in Experimental Example 3.
Model preparation and administration: same as in Experimental Example 3. On day 21 of the second immunization, the mice were weighed.

[3] = tested on: anti-type II collagen antibody; test: Serum anti-type II collagen antibody content in CIA mice (ELISA); conditions: 21 days after second immunization
Text: (§4) Test materials and animals: Consistent with Experimental Example 3. Anti-type II collagen antibody ELISA kit was purchased from Chondrex, Cytokine & Chemokine 36-Plex Mouse ProcartaPlex™ Panel 1A cytokine and chemokine detection kit was purchased from ThermoFisher.
(§5) Model preparation and drug administration: the drug dosage of each treatment group was the same as that of Experimental Example 3. After 21 days of the second immunization, the mice were anesthetized.
(2) The effects of each drug group on the anti-type II collagen antibody content in the serum of CIA mice were measured. Seven mice from each group were examined; peripheral blood was collected and separated from serum. Anti-type II collagen antibodies were detected with Elisa.

[4] = tested on: mouse model of ConA hepatitis; test: Liver pathological damage (HE staining) in mouse model of ConA hepatitis; conditions: liver 10 hours after ConA 15 mg/kg; compared with the ConA group
Description: as §1, §2, §3
(2) The effects of each drug group on liver pathological damage in ConA mice were examined. Three mice in each group were sacrificed under anesthesia 10 hours after ConA injection. The left lobe of the liver was taken, cut into a size of about 5 mm^3, and placed in 10% formalin solution, and dehydrated, transparently impregnated with wax, embedded, sliced, and spread, and observed after staining;

[5] = tested on: joint tissue cytokines IL-9, IL-18 and MIP-2; test: Joint tissue cytokines in CIA arthritis mice (multi-factor detection); conditions: MEAN ± SEM
Text: as §4, §5
(§6) (3) The effects of each drug group on cytokine secretion in serum and joint tissues of CIA mice were measured. Seven mice from each group were examined; peripheral blood was collected and separated from serum. Cytokines in serum were detected by multiple factors: IFN-γ, IL-6, IL-9, IL-12, IL-17A, IP-10, MCP-1, MCP-3. MIP-1α, MIP-1β, Eotaxin, and G-CSF; the right hind limb knees, joints and claws were taken and stored in liquid nitrogen for quick freezing, then homogenized and extracted protein. Multi-factor detection of cytokines in tissues: IL-9, IL-18 and MIP-2 secretion.

serum cytokines = test: Serum cytokines in CIA arthritis mice (multi-factor detection); conditions: MEAN ± SEM
Text: as §4, §5, §6

[6] = serum 3 hours after ConA injection

Q: Which results are given for COc1ccc(C=CC(=O)O)cc1O [isoferulic acid, 3-hydroxy-4-methoxycinnamic acid]?
A: proportion of granulocytes, Bone marrow [1]: 44.6 ± 5.1 %; proportion of granulocytes, spleen [1]: 9 ± 4.4 %; IL-6 [2, 6]: 1422 ± 214.2 pg/mL; IL-12 [2, 6]: 183.7 ± 33.4 pg/mL; MCP-1 [2, 6]: 5708 ± 145.5 pg/mL; TNF-α [2, 6]: 260.4 ± 119.5 pg/mL; IFN-γ ([2]; serum 10 hours after ConA injection): 574 ± 70.4 pg/mL; Body weight (Body weight of CIA mice): 21.6 ± 0.4 g; Anti-type II collagen antibody [3]: 9610 ± 664 Units/ml; liver pathological damage (HE staining) [4]: reduced hepatocyte degeneration and necrosis; Joint tissue IL-9 [5]: 3.2 ± 1.5 pg/mg; Joint tissue IL-18 [5]: 111.1 ± 125 pg/mg; Joint tissue MIP-2 [5]: 61.2 ± 45.8 pg/mg; Eotaxin (serum cytokines): 349.6 ± 85.4 pg/mL; G-CSF (serum cytokines): 4 ± 1.2 pg/mL; IL-6 (serum cytokines): 23.3 ± 21.6 pg/mL; IL-9 (serum cytokines): 15 ± 5.8 pg/mL; IL-12 (serum cytokines): 21.9 ± 3.5 pg/mL; IL-17A (serum cytokines): 4.9 ± 3.1 pg/mL; IP-10 (serum cytokines): 52.8 ± 20.8 pg/mL; MCP-1 (serum cytokines): 139.3 ± 43.4 pg/mL; MCP-3 (serum cytokines): 151.9 ± 20 pg/mL; MIP-1α (serum cytokines): 2.4 ± 0.6 pg/mL; MIP-1β (serum cytokines): 3.2 ± 1.1 pg/mL; IFN-γ (serum cytokines; isoferulic acid 5 mg/kg): 120.6 ± 37.1 pg/mL

Reference: patent US20200108032A1, “USE OF ISOFERULIC ACID, ISOFERULIC ACID-CONTAINING TRADITIONAL CHINESE MEDICINE EXTRACT AND CIMICIFUGAE RHIZOMA” (BEIJING DITAN HOSPITAL, CAPITAL MEDICAL UNIVERSITY, priority 2017, published 2020)
